# Tests used:
# Assay in all cases: Antimicrobial activity (MIC), agar diluting method
# Format in all cases: cell-based
# [1] = system: Staphylococcus aureus (FDA 209 p); settings: FDA209, Mueller Hinton agar, 35° C., 18 hours
# Experimental: (§1) (1) Antimicrobial activity test
# (§2) The antimicrobial activity was measured by the agar diluting method in accordance with the Standardized Method of the Japanese Society of Chemotherapy. A twofold dilution of a test compound was prepared by using M/50 phosphate buffer (pH 7.0). One milliliter of this solution and 9 ml of a Mueller Hinton agar medium (made by Difco Laboratories were mixed in a Petri dish having a diameter of 9 cm to prepare plates. A test microorganism was cultured overnight in a stationary condition at 35° C. in a Mueller-Hinton broth (made by Difco) and diluted with physiological saline to provide a cell density of about 10 ^6 cells/ml. Five microliter of the microorganism suspension was inoculated on the agar plates using a microplanter (made by Sakuma Seisakusho). The plates were incubated at 35° C. for 18 hours. The lowest concentration of the test compound at which the growth of the microorganism was completed inhibited is defined as the minimum inhibitory concentration (MIC) of the test compound against the test organism.
# [2] = system: Bacillus subtilis (ATCC 6633); settings: ATCC6633, Mueller Hinton agar, 35° C., 18 hours
# Experimental: as §1, §2
# [3] = system: Micrococcus luteus (ATCC 9341); settings: ATCC9341, Mueller Hinton agar, 35° C., 18 hours
# Experimental: as §1, §2
# [4] = system: Comamonas terrigena (B 996); settings: Mueller Hinton agar, 35° C., 18 hours
# Experimental: as §1, §2
Compound,MIC [1] [mg/L],MIC [2] [mg/L],MIC [3] [mg/L],MIC [4] [mg/L]
"CC(=O)NCCSC1=C(C(=O)O)N2C(=O)[C@H](N(C)C(=O)OCc3ccccc3)[C@H]2C1 [[14], sodium (5R,6R)-3-(2-acetamidoethylthio)-6-(N-benzyloxycarbonyl)methylamino-7-oxo-1-azabicyclo[3.2.0]hept-2-ene-2-carboxylate]",0.2,1.56,1.56,1.56
"COC(=O)N(C)[C@H]1C(=O)N2C(C(=O)O)=C(SCCNC(C)=O)C[C@H]12 [[22], sodium (5R,6R)-6-(N-carbomethoxy-N-methyl)amino-3-acetamidoethylthio-1-azabicyclo[3.2.0]hept-2-ene-7-one-2-carboxylate]",0.39,6.25,3.13,0.39
"CC(=O)NCCSC1=C(C(=O)O)N2C(=O)[C@H](N(C)S(C)(=O)=O)[C@H]2C1 [[29], sodium (5R,6R)-3-(2-acetamidoethylthio)-6-(N-methanesulfonyl)methylamino-7-oxo-1-azabicyclo[3.2.0]hept-2-ene-2-carboxylate]",0.2,1.56,0.78,3.13

# — patent publication US4996314A, “6-(disubstituted amino)carbapenem compounds” (Sanraku Incorporated, priority 1986, dated 1991)
